“Also recorded” adds a separate entry of the source.
Legend:
Type in all cases: in vivo, mouse
NOD mice [1] = assay: Glucose post oral insulin in fasting 7 week NOD mice (Example 2); details: for endocrinologic effect on blood glucose: oral 1 mg, over 24 hours
Experimental: In order to determine whether any endocrinologic (i.e. direct lowering of blood sugar) effects occurred following the feeding of insulin, 7 week old NOD mice (5 mice per group) were fed 1 mg of porcine insulin or 1 mg of myelin basic protein (obtained from Pel Freez, Rogers, Ark.) as a control protein. Blood glucose was then measured over the next 24 hour period. As a positive control, a separate group of animals were injected subcutaneously with 20 micrograms of Porcine insulin. All animals were kept in the fasting state.

[2] = system: NOD (non-obese diabetic) mice; assay: Spontaneous diabetes in NOD mice after oral feeding (Examples 1 and 3); details: for development of diabetes: FIG. 1
Source text: NOD (non-obese diabetic mice) were obtained from Taconic Laboratories (Germantown, Mass.) at 4 weeks of age. There were a total of 30 animals in each of the groups mentioned below at the beginning of the experiment. At 4 ½ weeks of age, animals were orally administered Porcine insulin (Novo Laboratories, Danbury, Conn.). Each animal received two treatments orally twice a week until 9 weeks of age. The mice were fed either saline (control) or 10 micrograms, 100 micrograms, or 1 milligram of Porcine insulin. The animals were fed (gavaged) with an 18 gauge ball-point needle (Popper and Sons, Inc., New Hyde Park, N.Y.). Beginning at 10 weeks the animals were then fed once a week for a total of 33 weeks. Beginning at 12 weeks the urine was tested weekly for the presence of glucose using Glucosuria test tape (Eli Lilly, Indianapolis, Ind.). If an animal tested 3+or higher on the glucose urine test, a serum sample was taken and blood glucose measured using a glucose analyzer (Beckman). If the blood glucose was 220 or higher, the animals were classified as diabetic and then sacrificed. An identical experiment to Example 1 was performed in which NOD mice (14-17 per group) were fed one homogenized pancreas derived from Lewis rats in 0.5 mls PBS. […] Nonetheless, the effect is not as dramatic and complete as that seen in the animals fed insulin.

NOD mice [3] = assay: Insulitis in insulin-fed NOD mice (preliminary experiments); details: fed 1 mg, vs PBS-fed NOD mice; data not shown
Source text: Therefore, oral administration of insulin to NOD mice appeared to be affecting the infiltration of immune system cells into the pancreas and thus halting disease progression by preserving beta cell function.

NOD mice [4] = assay: Aerosol administration of insulin on diabetes in NOD mice (Example 4); details: aerosol by nebulizer, 0 to 1 mg
Experimental: Insulin (0 to 1 mg as in Examples 1 and 2) will be administered to NOD mice as described above in Examples 1 and 2 except in aerosol form by nebulizer.

NOD mice [5] = assay: Treatment of initial stages of diabetes in hyperglycemic NOD mice (Example 5); details: oral and aerosol, 0 to 1 mg, hyperglycemic NOD mice from weeks 12-20
Experimental: Insulin (0 to 1 mg as in Examples 1 and 2) will be administered to NOD mice which are suffering from hyperglycemia in an oral and aerosol form. The treatments will begin by weeks 12 -20 of age, by which the serum glucose levels are at hyperglycemic concentrations in a certain percentage of animals prior to onset of diabetes.

## myelin basic protein
NOD mice [1]; FIG. 2
  endocrinologic effect on blood glucose: no drop in the blood glucose

## Porcine insulin
[2]; oral 1 mg (highest dose)
  treated animals that failed to develop diabetes: 100%
[2]; oral 1 mg, twice a week until 9 weeks of age, then once a week
  development of diabetes: none of the mice went on to develop diabetes; also recorded: no diabetes developed; also recorded: None of the animals developed diabetes
[2]; oral 10 microgram group, dose response fashion
  development of diabetes: diabetes developed
[2]; oral 100 microgram group, dose response fashion
  development of diabetes: diabetes developed
[2]; oral, all doses tested (10 micrograms, 100 micrograms, 1 mg)
  incidence / development of diabetes: lower incidence of diabetes at all doses; also recorded: reduced the numbers of these mice which subsequently went on to develop diabetes
NOD mice [1]; FIG. 2
  endocrinologic effect on blood glucose: no drop in the blood glucose; also recorded: no endocrinologic (metabolic) effects
NOD mice [1]; subcutaneous 20 micrograms
  period over which the glucose decrease persisted: 4 h
NOD mice [1]; subcutaneous 20 micrograms, FIG. 2
  decrease in blood glucose level: approximately 80 mg %
NOD mice [3]
  inflammatory immune system cells surrounding the pancreas (insulitis): fewer inflammatory immune system cells surrounding the pancreas
NOD mice [4]
  prevention of symptoms (hyperglycemia) of Type 1 diabetes: effective in preventing the manifestation of symptoms
NOD mice [5]
  beta cell function: preservation of beta cell function
  serum glucose concentrations: reduction in serum glucose concentrations to near normal levels
